According to patent publication US20090192167A1 (priority 2005, published 2009):
Like-named read-outs stand apart in the source and are kept apart here.

How the values were obtained:
[1] = system: Pyricularia oryzae; type: in vivo; settings: granule, nursery box, inoculated 30 days after treatment, lesions examined after 7 days
[2] = system: Pyricularia oryzae; type: in vivo; settings: granule, submerged application, inoculated 14 days after treatment, lesions examined after 7 days
[3] = system: Chilo suppressalis; settings: in vivo
[4] = system: Pyricularia oryzae; type: in vivo; settings: inoculated 1 day after spraying, lesions counted after 7 days
[5] = system: Chilo suppressalis; settings: in vivo; remark: listed apart in the source
[6] = system: Chilo suppressalis; settings: in vivo; remark: listed apart in the source
[7] = amount of treated chemical 150 gai/box
[8] = amount of treated chemical 100 gai/box
[9] = amount of treated chemical 60 gai/box

In the case of `CC(C)OC(=O)NC(CNC(=O)c1cc2ccccc2o1)C(C)C` (stereo not shown) [Compound 3005], the “Pyricularia oryzae Control value” ([1]; 15 gai/box) is reported as 100, the “Pyricularia oryzae Control value” ([2]; 450 (gai/box)) is reported as 100 and the “Mortality (%)” value [3] is reported as 0%. The “Pyricularia oryzae Control value” [4, 7] was 100, the “Mortality (%)” value [5] was 0% and the “Mortality (%)” value [6] was 0%.

In the case of `Cc1cc(C(F)(C(F)(F)F)C(F)(F)F)cc(C)c1NC(=O)c1cccc(NC(=O)OCCCl)c1F` [Compound 3002], the “Mortality (%)” value [3] is reported as 90% and the “Pyricularia oryzae Control value” [4, 8] is reported as 3.

For `Cc1cc(C(F)(C(F)(F)F)C(F)(F)F)cc(C)c1NC(=O)c1cccc(NC(=O)c2ccccc2)c1F` [Compound 601, N-(2,6-dimethyl-4-heptafluoroisopropyl)phenyl 3-(benzoylamino)-2-fluorobenzamide], the “Mortality (%)” value [3] was 95% and the “Pyricularia oryzae Control value” [4, 8] was 2.

With `Cc1cc(C(F)(C(F)(F)F)C(F)(F)F)cc(C)c1NC(=O)c1cccc(NC(=O)c2cccnc2Cl)c1` [Compound 106, N-(2,6-dimethyl-4-heptafluoroisopropyl)phenyl 3-[(2-chloropyridine-3-yl)carbonylamino]benzamide] the “Pyricularia oryzae Control value” ([1]; 5 gai/box) was 4 and the “Pyricularia oryzae Control value” ([2]; 300 (gai/box)) was 3.

With `Cc1ccc(C(=O)NCC(NC(=O)OC(C)C)C(C)(C)C)cc1` (stereo not shown) [Compound 3004] the “Pyricularia oryzae Control value” ([1]; 15 gai/box) was 100, the “Pyricularia oryzae Control value” ([2]; 450 (gai/box)) was 100 and the “Mortality (%)” value [3] was 0%. For the same compound, the “Pyricularia oryzae Control value” [4, 7] was 100, the “Mortality (%)” value [5] was 0% and the “Mortality (%)” value [6] was 0%.

For `Cc1cc(C(F)(C(F)(F)F)C(F)(F)F)cc(C)c1NC(=O)c1cccc(N(C)C(=O)c2ccc(C#N)cc2)c1F` [Compound 1217], the “Pyricularia oryzae Control value” ([1]; 5 gai/box) was 0, the “Pyricularia oryzae Control value” ([2]; 300 (gai/box)) was 5 and the “Mortality (%)” value [5] was 95%. For the same compound, the “Mortality (%)” value [6] was 95%.

`Cc1cc(C(F)(C(F)(F)F)C(F)(F)F)cc(C)c1NC(=O)c1cccc(N(C)C(=O)c2ccccc2)c1F` [Compound 1208] was tested, and the “Mortality (%)” value [3] was 95% and the “Pyricularia oryzae Control value” [4, 8] was 5.

With `Cc1cc(C(F)(C(F)(F)F)C(F)(F)F)cc(C)c1NC(=O)c1cccc(N(C)C(=O)c2cccnc2Cl)c1F` [Compound 1245] the “Pyricularia oryzae Control value” ([1]; 5 gai/box) was 5 and the “Pyricularia oryzae Control value” ([2]; 300 (gai/box)) was 0.

With `O=C(Nc1cccc(C(=O)Nc2c(Br)cc(C(F)(C(F)(F)F)C(F)(F)F)cc2SC(F)(F)F)c1)c1ccccc1` [Compound 210] the “Mortality (%)” value [3] was 95% and the “Pyricularia oryzae Control value” [4, 8] was 0.

For `Cc1ccc(C(=O)NCC(NC(=O)OCC(F)(F)F)C(C)C)cc1` (stereo not shown) [Compound 3006], the “Pyricularia oryzae Control value” ([1]; 7.5 gai/box) was 100, the “Pyricularia oryzae Control value” ([2]; 225 (gai/box)) was 100 and the “Mortality (%)” value [3] was 0%. The “Pyricularia oryzae Control value” [4, 9] was 100, the “Mortality (%)” value [5] was 0% and the “Mortality (%)” value [6] was 0%.

With `Cc1cc(C(F)(C(F)(F)F)C(F)(F)F)cc(C)c1NC(=O)c1cccc(NC(=O)OCC(F)(F)F)c1F` [Compound 3000] the “Mortality (%)” value [3] was 90% and the “Pyricularia oryzae Control value” [4, 8] was 3.

For `Cc1cc(C(F)(C(F)(F)F)C(F)(F)F)cc(C)c1NC(=O)c1cccc(N(C)C(=O)c2cccnc2F)c1F` [Compound 1246], the “Pyricularia oryzae Control value” ([1]; 5 gai/box) was 0 and the “Pyricularia oryzae Control value” ([2]; 300 (gai/box)) was 4.

`CC(C)C(CNC(=O)c1cc2ccccc2o1)NC(=O)OCC(F)(F)F` (stereo not shown) [Compound 3008] was tested, and the “Pyricularia oryzae Control value” ([1]; 7.5 gai/box) was 100, the “Pyricularia oryzae Control value” ([2]; 225 (gai/box)) was 100 and the “Mortality (%)” value [3] was 0%. The “Pyricularia oryzae Control value” [4, 9] was 100, the “Mortality (%)” value [5] was 0% and the “Mortality (%)” value [6] was 0%.

`Cc1cc(C(F)(C(F)(F)F)C(F)(F)F)cc(C)c1NC(=O)c1cccc(NC(=O)OC(CF)CF)c1` [Compound 3001] was tested, and the “Mortality (%)” value [3] was 95% and the “Pyricularia oryzae Control value” [4, 8] was 0.

With `Cc1cc(C(F)(C(F)(F)F)C(F)(F)F)cc(C)c1NC(=O)c1cccc(NC(=O)c2cccnc2Cl)c1F` [Compound 639] the “Pyricularia oryzae Control value” ([1]; 5 gai/box) was 5 and the “Pyricularia oryzae Control value” ([2]; 300 (gai/box)) was 0.

With `Cc1ccc(C(=O)NCC(NC(=O)OCC(F)(F)F)C(C)(C)C)cc1` (stereo not shown) [Compound 3007] the “Pyricularia oryzae Control value” ([1]; 7.5 gai/box) was 100, the “Pyricularia oryzae Control value” ([2]; 225 (gai/box)) was 100 and the “Mortality (%)” value [3] was 5%. The “Pyricularia oryzae Control value” [4, 9] was 100.

`Cc1ccc(C(=O)NCC(NC(=O)OC(C)C)C(C)C)cc1` (stereo not shown) [Compound 3003] was tested, and the “Pyricularia oryzae Control value” ([1]; 15 gai/box) was 100, the “Pyricularia oryzae Control value” ([2]; 450 (gai/box)) was 100 and the “Mortality (%)” value [3] was 0%. For the same compound, the “Pyricularia oryzae Control value” [4, 7] was 100, the “Mortality (%)” value [5] was 0% and the “Mortality (%)” value [6] was 0%.
